Results from publication PMC11984924, “Dipeptidic Phosphonates: Potent Inhibitors of Pseudomonas aeruginosa Elastase B Showing Efficacy in a Murine Keratitis Model” (Advanced Science, 2025).
Several values for one entry are separate records, joined by “and”; a condition that tells them apart may be missing. Equal entries are not always repeated. Each block holds one compound with its values, some of them ahead of it.

Columns and labels:
MMP-3 = molecular target: T1, MMP-3 (Homo sapiens, UniProt P08254); assay: MMP-3 inhibition (off-target); type: biochemical; settings: read-out: MMP-3 % inhibition at 100 µM
T1 construct: purchased AnaSpec (Fremont, CA, USA)
Description: (§1) 3.1 In vitro inhibition assays
LasB was expressed and purified as described previously.[3] In vitro inhibition assays (LasB, MMPs, TACE). All in vitro inhibition assays were performed as described previously.[10] TACE inhibitor screening kits were purchased from Sigma-Aldrich (Saint Louis, MO). MMPs along with the SensoLyte 520 Generic MMP Activity Kit Fluorimetric were purchased from AnaSpec (Fremont, CA, USA). The assays were performed according to the guidelines of the respective manufacturer. Fluorescence signals were measured using a CLARIOstar plate reader (BMG Labtech, Ortenberg, Germany). […]
3.8 Test against zinc metalloproteases MMP1–3 and TACE (ADAM17), and testing of
We selected a panel of human off -targets, including three human matrix metalloproteases (MMP-1, -2 and -3) and TACE (ADAM-17). These assays were performed as described previously.[3] The TACE inhibitor screening kit was purchased from Sigma -Aldrich (Saint Louis, MO). MMPs along with the SensoLyte 520 Generic MMP Activity Kit Fluorimetric were purchased from AnaSpec (Fremont, CA, USA). The assays were performed according to the guidelines of the respective manufacturer. Fluorescence signals were measured using a CLARIOstar plate reader (BMG Labtech, Ortenberg, Germany). […]
Table S6: Percent (%) inhibition of three MMPs (1 –3) and TACE (ADAM17) in presence of selected LasB inhibitors at 100 µM. Results are means and SD of at least two independent experiments. […]
(§2) Compound [% inhibition at [% inhibition at [% inhibition at [% inhibition at 100

LasB = molecular target: T2, LasB (Pseudomonas aeruginosa, UniProt Q02RJ6); assay: In vitro LasB inhibition assay; type: biochemical; settings: IC50 LasB inhibition
T2 construct: made in house
Description: as §1
LasB was expressed and purified as described previously.[3] In vitro inhibition assays (LasB,
MMPs, TACE). All in vitro inhibition assays were performed as described previously.[10] […]
Fluorescence signals were measured using a CLARIOstar plate reader (BMG
Labtech, Ortenberg, Germany). […]

[1] = Lipophilicity determination (HPLC-based LogD7.4); type: physicochemical; settings: C18 column; pH 7.4, HPLC-based
[2] = Stability in rat liver microsomes; type: in vitro ADME; settings: Wistar, read-out: Rat Liver Microsomes t1/2
Description: Samples were stored on ice until the end of the incubation and precipitated protein was removed by centrifugation (15 min, 4 °C, 4,000 g). Concentration of the remaining test […]
compound at the different time points was analyzed by HPLC-MS/MS (TSQ Quantum Access […]
MAX, Thermo Fisher, Dreieich, Germany) and used to determine half -life (t1/2) and intrinsic […]
Species profiling was conducted as above using 0.5 mg/mL pooled mouse, rat or minipig liver microsomes (Xenotech, Kansas City, USA) with 2 mM NADPH and 10 mM MgCl2 and testosterone, verapamil and ketoconazole as reference compounds. […]
Thermo Fisher, Dreieich, Germany) and used to determine half-life (t1/2).
Table S2: Additional in vitro ADMET data for selected dipeptides. n.d.: not determined.
Kinetic Liver S9 Clint [µL/mg/min] Plasma t1/2 [min] LogD7.4 […]
pH 7.4 [µM] Mouse Human Mouse Human

44 key molecular targets = assay: SafetyScreen44 in vitro panel (whole panel); parameters: species or system human; settings: 100 µM
From the text: Moreover, we explored the safety profile of frontrunner (R)‐30 in more detail in order to detect additional crucial off‐target interactions. For this purpose, we employed the SafetyScreen44 in vitro panel comprising selected binding, inhibition and uptake assays.^[ [35] ^] The panel is a specialized pharmacological profiling tool that tests compounds against 44 key molecular targets, aiming to identify potential safety risks early in drug discovery. […]
The off-target Safety Screen44TM was performed by the CRO Eurofins Cerep SA (Celle-
L'Evescault, France) according to their protocols.[13] […]
MMP-1 MMP-2 MMP-3 TACE (ADAM17)
as §2

T2 sequence (Q02RJ6 198-498): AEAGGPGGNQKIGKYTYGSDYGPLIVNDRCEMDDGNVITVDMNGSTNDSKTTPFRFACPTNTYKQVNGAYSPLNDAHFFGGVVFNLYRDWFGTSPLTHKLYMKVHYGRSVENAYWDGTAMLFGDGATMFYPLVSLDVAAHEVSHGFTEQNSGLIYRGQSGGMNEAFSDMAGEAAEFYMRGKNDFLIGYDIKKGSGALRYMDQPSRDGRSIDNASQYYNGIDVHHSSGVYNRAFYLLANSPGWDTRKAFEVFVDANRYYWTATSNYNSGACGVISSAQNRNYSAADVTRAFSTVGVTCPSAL
T1 sequence (P08254 100-477): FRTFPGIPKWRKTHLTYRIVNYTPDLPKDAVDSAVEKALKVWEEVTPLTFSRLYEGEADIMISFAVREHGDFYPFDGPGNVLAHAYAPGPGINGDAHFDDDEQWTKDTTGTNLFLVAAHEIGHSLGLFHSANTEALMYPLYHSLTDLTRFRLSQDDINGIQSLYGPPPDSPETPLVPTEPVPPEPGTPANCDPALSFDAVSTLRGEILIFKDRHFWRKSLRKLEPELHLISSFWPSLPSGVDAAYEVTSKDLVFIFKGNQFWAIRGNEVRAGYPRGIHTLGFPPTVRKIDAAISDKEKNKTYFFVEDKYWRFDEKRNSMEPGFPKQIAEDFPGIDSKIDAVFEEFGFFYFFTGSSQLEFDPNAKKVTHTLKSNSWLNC

- inhibition at 100 µM (MMP-3): < 10%
SMILES: CC(C)CC(C(=O)N[C@H](C(=O)Nc1ccc(Cl)c(Cl)c1)C(C)C)P(=O)(O)O (stereo partly shown) [compound 9]

SMILES: CC(C)C[C@H](C(=O)N[C@H](C(=O)Nc1ccc(-n2ccnc2)cc1)C(C)C)P(=O)(O)O [(R)‐36]
- IC50 (LasB): 10.9 ± 0.3 nM
- inhibition at 100 µM (MMP-3): < 10%
- chromatographic logD [1]: -0.67

SMILES: CC(C)CC(C(=O)N[C@H](C(=O)Nc1ccc(Cl)c(Cl)c1)C1CCC1)P(=O)(O)O (stereo partly shown) [compound 13]
- IC50 (LasB): 11.9 ± 0.3 nM
- inhibition at 100 µM (MMP-3): < 10%
- chromatographic logD [1]: -0.58

SMILES: CC(=O)c1ccc(NC(=O)[C@@H](NC(=O)C(CC(C)C)P(=O)(O)O)C(C)C)cc1 (stereo partly shown) [compound 30]
- IC50 (LasB): 5 ± 0.2 nM
- inhibition at 100 µM (MMP-3): < 10%
- half-life at 1 µM [2]: > 2 h

SMILES: CC(C)CC(C(=O)N[C@H](C(=O)Nc1ccc(Cl)c(Cl)c1)C1CCCCC1)P(=O)(O)O (stereo partly shown) [compound 14]
- IC50 (LasB): 12.4 ± 0.3 nM
- inhibition at 100 µM (MMP-3): < 10%
- chromatographic logD [1]: 1.14

SMILES: CC(=O)c1ccc(NC(=O)[C@@H](NC(=O)[C@@H](CC(C)C)P(=O)(O)O)C(C)C)cc1 [(R)‐30]
- IC50 (LasB): 4 nM and 3.7 nM
- inhibition at 100 µM (MMP-3): < 10%
- SafetyScreen44: number of targets inhibited (44 key molecular targets): ten targets by >50%
